From patent publication US8017612B2, “Piperazine compound and use thereof as a HCV polymerase inhibitor” (priority 2006, dated 2011)

Experiments:
[1] = target: T1, HCV polymerase (NS5B) type 1a (Hepatitis C virus genotype 1a, UniProt P26664); assay: Assay of enzyme (HCV polymerase) inhibitory activity, type 1a enzyme; type: biochemical, HCV type 1a (cloned from the blood of patients); conditions: HCV polymerase inhibitory activity IC50, 1a, type 1a enzyme
T1 construct: made in house; host or cells: Escherichia coli (by the 'similar method' of the 1b enzyme)
In short: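 Patient-derived type 1a NS5B (C-terminal 47-aa deletion, His-tagged, E. coli-expressed) at 1.5 μg/ml was reacted with 5 μg/ml 3′UTR-containing substrate RNA, 50 μM ATP/GTP/CTP, 2 μM UTP plus [3H]UTP, pH 7.5, 25° C for 60 min. TCA-precipitated RNA radioactivity was counted; IC50 from ± compound.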

[2] = target: T2, HCV polymerase (NS5B) type 1b (Hepatitis C virus genotype 1b, UniProt P26663); assay: Assay of enzyme (HCV polymerase) inhibitory activity, type 1b enzyme; type: biochemical, HCV BK strain (type 1b); conditions: HCV polymerase inhibitory activity IC50, 1b, type 1b enzyme
T2 construct: a region encoding NS5B (J Virol 1991 March, 65(3), 1105-13, 544 amino acids after deletion of 47 amino acids on the C-terminal); 6xHis (C); made in house; host or cells: Escherichia coli
In short: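 NS5B from HCV BK strain (type 1b), C-terminal 47 aa deleted, C-terminal His6-tagged, E. coli-expressed, 0.5 μg/ml, with ~450 nt substrate RNA carrying the 3′ UTR (polyU, 3′X) at 5 μg/ml. Incubation 60 min at 25 °C with 50 μM ATP/GTP/CTP, 2 μM UTP plus [3H]UTP, pH 7.5 Tris.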

Row | SMILES | IC50 [1] [nM] | IC50 [2] [nM]
1 | O=C(NCc1ccc(OC(F)(F)F)cc1)[C@H]1CN(c2cnc3cncnc3n2)CCN1S(=O)(=O)c1ccc([N+](=O)[O-])cc1 [Example 790, (R)-1-(4-nitro-benzenesulfonyl)-4-pteridin-7-yl-piperazine-2-carboxylic acid 4-trifluoromethoxy-benzylamide] | < 100 | < 100
2 | O=C(NCc1ccc(OC(F)(F)F)cc1)[C@H]1CN(c2cnc3cncnc3n2)CCN1S(=O)(=O)c1ccc(C(F)(F)F)cc1 [Example 791, (R)-4-pteridin-7-yl-1-(4-trifluoromethyl-benzenesulfonyl)-piperazine-2-carboxylic acid 4-trifluoromethoxy-benzylamide] | < 100 | < 100
3 | O=C(NCc1ccc(OC(F)(F)F)cc1)[C@H]1CN(c2cnc3cncnc3n2)CCN1S(=O)(=O)c1ccc(Cl)s1 [Example 792, (R)-1-(5-chloro-thiophene-2-sulfonyl)-4-pteridin-7-yl-piperazine-2-carboxylic acid 4-trifluoromethoxy-benzylamide] | < 100 | < 100
4 | O=C(NCc1ccc(OC(F)(F)F)cc1)[C@H]1CN(c2ccc3ncccc3n2)CCN1S(=O)(=O)c1ccc(OC(F)(F)F)cc1 [Example 793, (R)-4-[1,5]naphthyridin-2-yl-1-(4-trifluoromethoxy-benzenesulfonyl)-piperazine-2-carboxylic acid 4-trifluoromethoxy-benzylamide] | < 100 | < 100
5 | O=C(NCc1ccc(OC(F)(F)F)cc1)[C@H]1CN(c2nc3nccnc3s2)CCN1S(=O)(=O)c1ccc(OC(F)(F)F)cc1 [Example 794, (R)-4-thiazolo[4,5-b]pyrazin-2-yl-1-(4-trifluoromethoxy-benzenesulfonyl)-piperazine-2-carboxylic acid 4-trifluoromethoxy-benzylamide] | < 100 | < 100
6 | O=C(NCc1c(F)c(F)c(C(F)(F)F)c(F)c1F)[C@H]1CN(c2cnc3cncnc3n2)CCN1S(=O)(=O)c1ccc(OC(F)(F)F)cc1 [Example 795, (R)-4-pteridin-7-yl-1-(4-trifluoromethoxy-benzenesulfonyl)-piperazine-2-carboxylic acid 2,3,5,6-tetrafluoro-4-trifluoromethyl-benzylamide] | < 100 | < 100
7 | CCc1ccc(S(=O)(=O)N2CCN(c3cnc(CO)cn3)C[C@@H]2C(=O)NCc2ccc(OC(F)(F)F)cc2)cc1 [Example 796, (R)-4-(4-ethyl-benzenesulfonyl)-5′-hydroxymethyl-3,4,5,6-tetrahydro-2H-[1,2′]bipyrazinyl-3-carboxylic acid 4-trifluoromethoxy-benzylamide] | < 100 | < 100
8 | O=C(NCc1c(Cl)cc(Cl)cc1Cl)[C@H]1CN(c2cnc3cncnc3n2)CCN1S(=O)(=O)c1ccc(OC(F)(F)F)cc1 [Example 797, (R)-4-pteridin-7-yl-1-(4-trifluoromethoxy-benzenesulfonyl)-piperazine-2-carboxylic acid 2,4,6-trichloro-benzylamide] | < 100 | < 100
9 | O=C(NCc1ccc(OC(F)(F)F)cc1)[C@H]1CN(c2cnc3cnc(C(F)(F)F)nc3n2)CCN1S(=O)(=O)c1ccc(OC(F)(F)F)cc1 [Example 798, (R)-1-(4-trifluoromethoxy-benzenesulfonyl)-4-(2-trifluoromethyl-pteridin-7-yl)-piperazine-2-carboxylic acid 4-trifluoromethoxy-benzylamide] | 100 to 1000 | < 100
10 | O=C(NCc1ccc(OC(F)(F)F)cc1)[C@H]1CN(c2cnc3cncc(Br)c3n2)CCN1S(=O)(=O)c1ccc(OC(F)(F)F)cc1 [Example 799, (R)-4-(8-bromo-pyrido[3,4-b]pyrazin-2-yl)-1-(4-trifluoromethoxy-benzenesulfonyl)-piperazine-2-carboxylic acid 4-trifluoromethoxy-benzylamide] | < 100 | < 100
11 | O=C(NCc1ccc(OC(F)(F)F)cc1)[C@H]1CN(c2nc3nc(Cl)nc(Cl)c3s2)CCN1S(=O)(=O)c1ccc(OC(F)(F)F)cc1 [Example 800, (R)-4-(5,7-dichloro-thiazolo[4,5-d]pyrimidin-2-yl)-1-(4-trifluoromethoxy-benzenesulfonyl)-piperazine-2-carboxylic acid 4-trifluoromethoxy-benzylamide] | < 100 | < 100
12 | O=C(NCc1ccc(OC(F)(F)F)cc1)[C@H]1CN(c2nc3ncncc3s2)CCN1S(=O)(=O)c1ccc(OC(F)(F)F)cc1 [Example 801, (R)-4-thiazolo[4,5-d]pyrimidin-2-yl-1-(4-trifluoromethoxy-benzenesulfonyl)-piperazine-2-carboxylic acid 4-trifluoromethoxy-benzylamide] | < 100 | < 100
13 | O=C(NCc1ccc(OC(F)(F)F)cc1)[C@H]1CN(c2nc3nc(Cl)ncc3s2)CCN1S(=O)(=O)c1ccc(OC(F)(F)F)cc1 [Example 802, (R)-4-(5-chloro-thiazolo[4,5-d]pyrimidin-2-yl)-1-(4-trifluoromethoxy-benzenesulfonyl)-piperazine-2-carboxylic acid 4-trifluoromethoxy-benzylamide] | < 100 | < 100
14 | O=C(NCc1ccc(OC(F)(F)F)cc1)[C@H]1CN(c2nc3c(=O)[nH][nH]c(=O)c3s2)CCN1S(=O)(=O)c1ccc(OC(F)(F)F)cc1 [Example 803, (R)-4-(4,7-dioxo-4,5,6,7-tetrahydro-thiazolo[4,5-d]pyridazin-2-yl)-1-(4-trifluoromethoxy-benzenesulfonyl)-piperazine-2-carboxylic acid 4-trifluoromethoxy-benzylamide] | < 100 | < 100
15 | O=C(NCC12CC3CC(CC(C3)C1)C2)[C@H]1CN(c2cnc3cncnc3n2)CCN1S(=O)(=O)c1ccc(OC(F)(F)F)cc1 [Example 804, (R)-4-pteridin-7-yl-1-(4-trifluoromethoxy-benzenesulfonyl)-piperazine-2-carboxylic acid (adamantan-1-ylmethyl)-amide] | > 1000 | > 1000
16 | O=C(NCc1ccc(OC(F)(F)F)cc1)[C@H]1CN(c2nc3cn[nH]c(=O)c3s2)CCN1S(=O)(=O)c1ccc(OC(F)(F)F)cc1 [Example 805, (R)-4-(7-oxo-6,7-dihydrothiazolo[4,5-d]pyridazin-2-yl)-1-(4-trifluoromethoxy-benzenesulfonyl)-piperazine-2-carboxylic acid 4-trifluoromethoxy-benzylamide] | < 100 | < 100
17 | O=C(O)c1cncc2ncc(N3CCN(S(=O)(=O)c4ccc(OC(F)(F)F)cc4)[C@@H](C(=O)NCc4ccc(OC(F)(F)F)cc4)C3)nc12 [Example 806, 2-[(R)-4-(4-trifluoromethoxy-benzenesulfonyl)-3-(4-trifluoromethoxy-benzylcarbamoyl)-piperazin-1-yl]-pyrido[3,4-b]pyrazine-8-carboxylic acid] | < 100 | < 100
18 | NC(=O)c1cncc2ncc(N3CCN(S(=O)(=O)c4ccc(OC(F)(F)F)cc4)[C@@H](C(=O)NCc4ccc(OC(F)(F)F)cc4)C3)nc12 [Example 807, 2-[(R)-4-(4-trifluoromethoxy-benzenesulfonyl)-3-(4-trifluoromethoxy-benzylcarbamoyl)-piperazin-1-yl]-pyrido[3,4-b]pyrazine-8-carboxylic acid amide] | < 100 | < 100
